Results reported in patent publication US20130217908A1, “STABILISATION OF RADIOPHARMACEUTICAL PRECURSORS” (GE HEALTHCARE LIMITED, priority 2010, published 2013).

Key:
[1] = Storage stability of the precursor of formula II with or without a drying agent, degradation by 19F NMR; format: physicochemical
Description: To test the stability of the precursor of formula II when packed with a drying agent, a sample of the precursor was analysed by ^19F and ^1H measurements.
The following drying agents were used:
Molecular sieve: 0.4 nm, Merck, Art. 5708, beads about 2 mm, pore size 4A Silica: Kiselgel, Merck, product no. 1.01969.5000
The drying agents used in the tests are typical drying agents for removing water from solvents and desiccators. The drying agents were both dried at 120° C. for about 90 hours before use.
The storage conditions for the precursor together with a drying agent were tested by storing together in the bottom of a small sample glass (mixed together) placed on a shelf in the lab (i.e. at room temperature). Also some samples without drying agent were set up. The first analysis of the samples with solid product was performed after 3.5 months storage and a second analysis was carried out after 5 months storage.

[2] = Earlier stability testing of the compound of formula II at set storage temperatures; format: physicochemical
[3] = solid, stored in a small sample glass at room temperature
[4] = solid, stored in a small sample glass at room temperature, listed as precursor
[5] = stored in freezer, reference, no drying agent

CCOC(=O)[C@]1(NC(=O)OC(C)(C)C)C[C@@H](OS(=O)(=O)C(F)(F)F)C1 [PRECURSOR, 1-(N-(t-butoxycarbonyl)amino)-3-[((trifluoromethyl)sulfonyl)oxy]-cyclobutane-1-carboxylic acid ethyl ester]
19F NMR results, degradation (mole %) after 3.5 months [1, 3]: 30.7 mole % | 19F NMR results, degradation (mole %) after 3.5 months [1, 4]: about 30 mole % | 19F NMR results, degradation (mole %) after 5 months [1, 3]: 96.6 mole % | 19F NMR results, degradation (mole %) after 5 months [1, 4]: about 97 mole % | 19F NMR results, degradation (mole %) after 3.5 months [1, 5]: 0.7 mole % | 19F NMR results, degradation (mole %) after 5 months [1, 5]: 0.6 mole % | hygroscopicity (observation) [2]: hygroscopic | period over which the compound is stable ([2]; stability testing at 25° C.): ~1 month | stability at storage conditions ([2]; storage between −20° C. and −5° C.): acceptable stability
